Counter-ions that a name gives are not always drawn. Like-named read-outs stand apart in the source and are kept apart here.
Tests used:
PDE1 (bovine brain) = assay: PDE activity IMAP assay, bovine brain PDE1; type: biochemical; conditions: Fl-cGMP substrate, CaCl2/calmodulin
PDE1 isoforms = assay: PDE1 potency and selectivity versus other PDE families; type: biochemical; conditions: span of Table 1 values; read-out: Ki for inhibition of recombinant or bovine PDE1 enzymes
[1] = tested on: Na^+ channel (site 2), sodium channel; assay: Off-target binding, General SEP II panel; conditions: 10 μM ITI-214, mean of n = 2
NK3 (h), neurokinin = molecular target: T1, NK3 (h), neurokinin (Homo sapiens, UniProt P29371); assay: Off-target binding, General SEP II panel; conditions: 10 μM ITI-214, mean of n = 2
T1 construct: Caliper Life Sciences (contract screen)
T1 sequence (P29371 1-465): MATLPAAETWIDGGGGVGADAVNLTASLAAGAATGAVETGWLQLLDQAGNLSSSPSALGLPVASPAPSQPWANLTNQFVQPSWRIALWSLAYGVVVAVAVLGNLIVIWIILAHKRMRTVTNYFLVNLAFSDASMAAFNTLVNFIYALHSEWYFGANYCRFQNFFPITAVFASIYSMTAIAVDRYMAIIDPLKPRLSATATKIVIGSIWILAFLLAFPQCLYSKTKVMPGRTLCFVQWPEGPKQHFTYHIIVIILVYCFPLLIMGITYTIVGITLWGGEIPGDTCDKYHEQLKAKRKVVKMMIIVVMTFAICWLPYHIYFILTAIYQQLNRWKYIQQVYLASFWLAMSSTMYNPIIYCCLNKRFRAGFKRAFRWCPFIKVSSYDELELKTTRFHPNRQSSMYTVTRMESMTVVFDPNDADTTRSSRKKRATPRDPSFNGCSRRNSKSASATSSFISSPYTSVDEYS

[2] = tested on: Alpha 1 (non-selective), adrenergic; assay: Off-target binding, General SEP II panel; conditions: 10 μM ITI-214, mean of n = 2
[3] = molecular target: T2, Potassium channel I[Kr], (hERG) (Homo sapiens, UniProt Q12809); assay: Off-target binding, General SEP II panel; conditions: 10 μM ITI-214, mean of n = 2
T2 construct: Caliper Life Sciences (contract screen)

[4] = tested on: Alpha 2 (non-selective), adrenergic; assay: Off-target binding, General SEP II panel; conditions: 10 μM ITI-214, mean of n = 2
NK1 (h), neurokinin = molecular target: T3, NK1 (h), neurokinin (Homo sapiens, UniProt P25103); assay: Off-target binding, General SEP II panel; conditions: 10 μM ITI-214, mean of n = 2
T3 construct: Caliper Life Sciences (contract screen)

[5] = tested on: 70 key receptor, enzyme, and ion channel proteins; assay: 70-target diversity panel (SEP II), whole panel; type: binding; conditions: 10 μM, 70-target panel
[6] = tested on: memory acquisition and retrieval in male Wistar rats; assay: Novel object recognition (NOR): suboptimal doses 2 h before T1 and T2; type: in vivo, rat
Description: (§1) The drug was administered, per os (po), by gavage to rats in a volume of 2 ml/kg body weight. Oral dosing solutions were prepared fresh daily. […] The pH of the dosing solution was adjusted to ~pH 5.5 by dropwise addition of 0.1 N NaOH in saline and volume adjusted by addition of saline in preparation for intraperitoneal (ip) dosing. […] Control treatments were always the vehicle solutions of the corresponding drugs.
The object recognition test was performed as described elsewhere (Ennaceur and Delacour [1988]; Akkerman et al. 2014). The apparatus consisted of a circular arena, 83 cm in diameter. Half of the 40-cm-high wall was made of gray polyvinyl chloride, the other half of transparent polyvinyl chloride. The light intensity was equal in the different parts of the apparatus, as fluorescent red tubes provided a constant illumination of about 20 lx on the floor of the apparatus. Two objects were placed in a symmetrical position at about 10 cm from the gray wall. Four different sets of objects were used. The different objects were (1) a cone consisting of a gray polyvinyl chloride base (maximal diameter 18 cm) with a collar on top made of brass (total height 16 cm), (2) a standard 1 L transparent glass bottle (diameter 10 cm, height 22 cm) filled with water, (3) a large metal cube (10.0 × 5.0 × 7.5 cm) with two holes (diameter 1.9 cm), and (4) a large aluminum cube with a tapering top (13.0 × 8.0 × 8.0 cm). The objects used in this study were carefully selected to be “novelty neutral,” that is to say the rats have no innate preference for one over the other. […]
A testing session consisted of two trials. […] The times spent in exploring each object during T1 and T2 were recorded manually using a personal computer. […]
The basic measure recorded was the time spent by each rat exploring an object during T1 and T2. […] The following variables were calculated: e1 = a1 + a2, e2 = a + b, and d2 = (b − a) / e2. […] Differences in exploration times between treatment conditions were analyzed using a t test or one-way ANOVA. […]

[7] = tested on: late memory consolidation in male Wistar rats; assay: Novel object recognition (NOR): late consolidation, drug 3 h after T1; type: in vivo, rat; conditions: for Exploration time e1 (T1) / Exploration time e2 (T2): 3 h after T1
Description: as §1
The object recognition test was performed as described elsewhere (Ennaceur and Delacour [1988]; Akkerman et al. 2014). The apparatus consisted of a circular arena, 83 cm in diameter. Half of the 40-cm-high wall was made of gray polyvinyl chloride, the other half of transparent polyvinyl chloride. The light intensity was equal in the different parts of the apparatus, as fluorescent red tubes provided a constant illumination of about 20 lx on the floor of the apparatus. Two objects were placed in a symmetrical position at about 10 cm from the gray wall. Four different sets of objects were used. The different objects were (1) a cone consisting of a gray polyvinyl chloride base (maximal diameter 18 cm) with a collar on top made of brass (total height 16 cm), (2) a standard 1 L transparent glass bottle (diameter 10 cm, height 22 cm) filled with water, (3) a large metal cube (10.0 × 5.0 × 7.5 cm) with two holes (diameter 1.9 cm), and (4) a large aluminum cube with a tapering top (13.0 × 8.0 × 8.0 cm). The objects used in this study were carefully selected to be “novelty neutral,” that is to say the rats have no innate preference for one over the other. In all cases, objects were of sufficient size and weight that rats could not move the objects.
A testing session consisted of two trials. The duration of each trial was 3 min. During the first trial (T1), the apparatus contained two identical objects (samples). Rats were placed in the apparatus facing the wall at the middle of the front (transparent) segment. After the first exploration period, the rat was put back in its home cage. Subsequently, after a 24-h delay interval, the rat was put in the apparatus for the second trial (T2). The times spent in exploring each object during T1 and T2 were recorded manually using a personal computer.
Exploration was defined as follows: directing the nose to the object at a distance of no more than 2 cm and/or touching the object with the nose. Sitting on the object was not considered as exploratory behavior. In order to avoid the presence of olfactory cues, the objects were always thoroughly cleaned with a 70 % ethanol solution before each trial. All combinations and locations of objects were used in a balanced manner to reduce potential biases due to preferences for particular locations or objects.
During the first 2 weeks after animal arrival, the animals were handled daily. They were then adapted to the procedure over the period of 2 days by allowing them to explore the apparatus (without any objects) for 3 min twice each day. […] After this, the rats were assigned to treatment conditions in a balanced manner, thereby insuring an equal distribution of object combinations among the treatment conditions. […] In all experiments, a 24-h inter-trial interval was used. In all cases, the experimenter was unaware of the treatment conditions that were being tested.
The basic measure recorded was the time spent by each rat exploring an object during T1 and T2. The time spent in exploring the two identical samples was represented by “a1” and “a2.” The time spent in T2 in exploring the sample and new object was represented by “a” and “b,” respectively. The following variables were calculated: e1 = a1 + a2, e2 = a + b, and d2 = (b − a) / e2. The e1 and e2 are measures of the total exploration time of both objects during T1 and T2, respectively. Differences in exploration times between treatment conditions were analyzed using a t test or one-way ANOVA. […]

[8] = Pharmacokinetics of ITI-214 in rats; type: in vivo; conditions: rat, oral; for concentration at 2 h: 3 mg/kg
Text: Standard methods of tissue extraction were used.

[9] = healthy volunteers and patients with schizophrenia; no reference given; cited from earlier work
[10] = 0.3 mg/kg 2 h before T1 and 0.1 mg/kg 2 h before T2, po

T2 sequence (Q12809 whole entry): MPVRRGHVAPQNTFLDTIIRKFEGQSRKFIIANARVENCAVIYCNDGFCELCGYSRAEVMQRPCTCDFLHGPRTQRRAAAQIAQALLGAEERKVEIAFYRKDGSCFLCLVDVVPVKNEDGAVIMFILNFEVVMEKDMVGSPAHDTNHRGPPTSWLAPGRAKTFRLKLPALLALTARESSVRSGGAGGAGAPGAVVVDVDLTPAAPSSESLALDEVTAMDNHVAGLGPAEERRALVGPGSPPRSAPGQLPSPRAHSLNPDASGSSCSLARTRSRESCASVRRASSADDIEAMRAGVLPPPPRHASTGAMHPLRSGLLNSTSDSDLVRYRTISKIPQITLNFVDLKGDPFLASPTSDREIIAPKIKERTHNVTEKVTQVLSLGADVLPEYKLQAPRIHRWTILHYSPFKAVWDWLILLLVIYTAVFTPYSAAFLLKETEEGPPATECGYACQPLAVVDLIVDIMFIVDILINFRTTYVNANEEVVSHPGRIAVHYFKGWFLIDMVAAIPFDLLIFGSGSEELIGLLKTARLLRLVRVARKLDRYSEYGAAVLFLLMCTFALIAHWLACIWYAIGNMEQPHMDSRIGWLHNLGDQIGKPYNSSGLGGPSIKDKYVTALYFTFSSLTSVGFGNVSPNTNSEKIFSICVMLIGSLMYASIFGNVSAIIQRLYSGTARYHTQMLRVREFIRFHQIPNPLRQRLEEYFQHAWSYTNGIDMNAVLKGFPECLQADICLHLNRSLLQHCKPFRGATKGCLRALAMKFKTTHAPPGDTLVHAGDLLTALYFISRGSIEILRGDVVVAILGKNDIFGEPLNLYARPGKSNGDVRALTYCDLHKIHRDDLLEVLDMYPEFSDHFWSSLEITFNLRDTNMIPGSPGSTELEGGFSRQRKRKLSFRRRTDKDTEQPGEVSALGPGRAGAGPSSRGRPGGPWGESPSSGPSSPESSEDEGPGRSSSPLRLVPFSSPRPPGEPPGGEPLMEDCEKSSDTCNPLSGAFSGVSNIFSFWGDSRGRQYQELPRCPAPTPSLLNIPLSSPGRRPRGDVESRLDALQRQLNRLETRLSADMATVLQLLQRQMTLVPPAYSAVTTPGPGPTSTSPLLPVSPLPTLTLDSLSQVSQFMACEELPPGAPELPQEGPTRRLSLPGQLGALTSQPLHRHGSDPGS
T3 sequence (P25103 whole entry): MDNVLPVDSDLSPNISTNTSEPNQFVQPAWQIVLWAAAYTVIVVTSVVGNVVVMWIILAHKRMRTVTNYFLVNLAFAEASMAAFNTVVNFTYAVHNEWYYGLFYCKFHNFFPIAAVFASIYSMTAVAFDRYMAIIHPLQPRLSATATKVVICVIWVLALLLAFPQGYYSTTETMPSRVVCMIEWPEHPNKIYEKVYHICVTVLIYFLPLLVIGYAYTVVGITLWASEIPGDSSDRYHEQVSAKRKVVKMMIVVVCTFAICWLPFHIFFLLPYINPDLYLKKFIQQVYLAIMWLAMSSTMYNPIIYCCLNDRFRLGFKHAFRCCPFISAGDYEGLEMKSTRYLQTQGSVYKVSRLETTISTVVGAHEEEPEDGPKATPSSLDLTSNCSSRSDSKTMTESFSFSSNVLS

CN1C(=O)c2c(nn(Cc3ccc(-c4cccc(F)n4)cc3)c2Nc2ccccc2)N2C1=N[C@@H]1CCC[C@@H]12 [ITI-214, (6aR,9aS)-2-(4-(6-fluoropyridin-2-yl)benzyl)-5-methyl-3-(phenylamino)-5,6a,7,8,9,9a-hexahydrocyclopenta-[4,5]imidazo[1,2-a]pyrazolo[4,3-e]pyrimidin-4-(2H)-one phosphate salt]
Ki (PDE1 (bovine brain)): 0.058 nM | Ki (PDE1 isoforms): 0.034 to 0.058 nM | % Binding [1]: 88.44% | % Binding (NK3 (h), neurokinin): 64.65% | % Binding [2]: 40.90% | % Binding [3]: 35.09% | % Binding [4]: 34.94% | % Binding (NK1 (h), neurokinin): 30.93% | number of panel targets showing >50 % binding [5]: 4 | Exploration time e1 (T1) [6, 10]: 30.43 (2.16) s | Exploration time e2 (T2) [6, 10]: 28.78 (1.26) s | effect on discrimination behavior (d2), combined sub-effective doses ([6]; 0.3 mg/kg 2 h before T1 plus 0.1 mg/kg 2 h before T2, different from chance and vehicle, p < 0.001): full increase in discrimination behavior | Exploration time e1 (T1) ([7]; 0.1 mg/kg po): 26.20 (1.95) s | Exploration time e2 (T2) ([7]; 0.1 mg/kg po): 32.81 (2.24) s | Exploration time e1 (T1) ([7]; 0.3 mg/kg po): 29.36 (3.22) s | Exploration time e2 (T2) ([7]; 0.3 mg/kg po): 29.64 (2.15) s | Exploration time e1 (T1) ([7]; 1 mg/kg po): 25.93 (1.53) s | Exploration time e2 (T2) ([7]; 1 mg/kg po): 27.86 (2.43) s | Exploration time e1 (T1) ([7]; 3 mg/kg po): 25.62 (1.89) s | Exploration time e2 (T2) ([7]; 3 mg/kg po): 28.34 (2.95) s | effect on exploratory behavior ([7]; early and late consolidation experiments): no effects on exploratory behavior | full effective dose (d2 different from chance and from vehicle), late consolidation ([7]; po 3 h after T1): 1 mg/kg | Tmax ([8]; brain): ~1.5 h | concentration at 2 h ([8]; brain, plasma levels associated with optimal effects on acquisition, read-out: brain free fraction estimated): 0.12 nM | concentration at 2 h ([8]; plasma, 2 h after drug administration, N = 12 rats, read-out: plasma level): 30.1 ± 13.4 ng/mL | concentration at 2 h ([8]; plasma, 2 h after drug administration, read-out: free plasma concentration): 0.12 nM | safety and tolerability [9]: safe and well-tolerated
